# Where a SMILES comes first, the peptide text is derived from it. [ ]: non-standard residue; d: D form. NMeF = CN[C@@H](Cc1ccccc1)C(=O)O; dNMeL = CN[C@H](CC(C)C)C(=O)O; NMeA = CN[C@@H](C)C(=O)O; Nle = CCCC[C@H](N)C(=O)O; dNMeA = CN[C@H](C)C(=O)O
# Conditions: PAMPA
SMILES,PAMPA_Papp_Avg,PAMPA_R1,PAMPA_R3
"CC(C)[C@@H]1C(=O)N[C@@H](Cc2ccccc2)C(=O)N2CCC[C@H]2C(=O)N(C)[C@H](Cc2ccccc2)C(=O)N[C@H](C)C(=O)N2CCC[C@H]2C(=O)N1C (single isomer, unassigned) [Design D6.8.p2, *DPHE DALA PRO *DVAL PHE PRO]",1.77e-06 cm/s,1.92e-06 cm/s,1.94e-06 cm/s
"CC(C)C[C@H]1C(=O)N2CCC[C@@H]2C(=O)N[C@@H](Cc2ccccc2)C(=O)N2CCC[C@H]2C(=O)N[C@H](C(C)C)C(=O)N[C@H](Cc2ccccc2)C(=O)N1C (single isomer, unassigned) [Design D6.9.p2, DVAL DPHE *LEU DPRO PHE PRO]",6.77e-06 cm/s,6.03e-06 cm/s,8.48e-06 cm/s
"CC(C)C[C@H]1NC(=O)[C@H]2CCCN2C(=O)[C@@H]2CCCN2C(=O)[C@@H](Cc2ccccc2)NC(=O)[C@@H](C(C)C)NC(=O)[C@H](CC(C)C)N(C)C(=O)[C@@H](Cc2ccccc2)NC1=O (single isomer, unassigned) [Design D7.7.p2, PRO DPRO DLEU DPHE *LEU DVAL DPHE]",9.06e-06 cm/s,7.93e-06 cm/s,1.17e-05 cm/s
"CC[C@H](C)[C@@H]1NC(=O)[C@H](Cc2ccccc2)NC(=O)[C@H]2CCCN2C(=O)[C@H]([C@@H](C)CC)NC(=O)[C@H](C(C)C)NC(=O)[C@@H](C)NC(=O)[C@H]2CCCN2C1=O (single isomer, unassigned) [Design D7.8.p2, VAL ILE DPRO PHE ILE DPRO DALA]",4.92e-06 cm/s,4.52e-06 cm/s,5.64e-06 cm/s
"CC(C)C[C@H]1NC(=O)[C@@H]2CCCN2C(=O)[C@H]2CCCN2C(=O)[C@H](C(C)C)NC(=O)[C@@H](CC(C)C)NC(=O)[C@@H]2CCCN2C(=O)[C@H]2CCCN2C(=O)[C@H](C(C)C)NC1=O (single isomer, unassigned) [Design D8.12.p2, DLEU VAL DPRO PRO DLEU VAL DPRO PRO]",2.00E-07,1.77E-07,2.25E-07
"CC(C)C[C@@H]1NC(=O)[C@@H](C(C)C)NC(=O)[C@H](CC(C)C)N(C)C(=O)[C@H]2CCCN2C(=O)[C@@H](C(C)C)NC(=O)[C@H]2CCCN2C(=O)[C@@H](C(C)C)NC(=O)[C@@H](Cc2ccccc2)N(C)C(=O)[C@H](CC(C)C)N(C)C1=O (single isomer, unassigned) [Design D9.8.p1, *LEU DVAL LEU *LEU *DPHE DVAL DPRO DVAL DPRO]",5.72E-06,5.56E-06,6.18E-06
"CC(C)C[C@@H]1NC(=O)[C@@H](C(C)C)NC(=O)[C@H](CC(C)C)N(C)C(=O)[C@H]2CCCN2C(=O)[C@@H](C(C)C)NC(=O)[C@H]2CCCN2C(=O)[C@@H](C(C)C)NC(=O)[C@@H](Cc2ccccc2)N(C)C(=O)[C@H](CC(C)C)N(C)C1=O (single isomer, unassigned) [Design D9.8.p2, *LEU DVAL LEU *LEU *DPHE DVAL DPRO DVAL DPRO]",9.35E-07,1.16E-06,8.61E-07
"CC(C)C[C@@H]1C(=O)N(C)[C@@H](Cc2ccccc2)C(=O)N[C@@H](C(C)C)C(=O)N2CCC[C@H]2C(=O)NCC(=O)N2CCC[C@H]2C(=O)N(C)[C@H](CC(C)C)C(=O)N[C@@H](C(C)C)C(=O)N[C@H](CC(C)C)C(=O)N1C (single isomer, unassigned) [Design D9.43.p1, *DLEU VAL DLEU *DLEU *PHE VAL PRO GLY PRO]",9.46E-07,8.93E-07,5.40E-07
"CC(C)C[C@@H]1C(=O)N(C)[C@@H](Cc2ccccc2)C(=O)N[C@@H](C(C)C)C(=O)N2CCC[C@H]2C(=O)NCC(=O)N2CCC[C@H]2C(=O)N(C)[C@H](CC(C)C)C(=O)N[C@@H](C(C)C)C(=O)N[C@H](CC(C)C)C(=O)N1C (single isomer, unassigned) [Design D9.43.p2, *DLEU VAL DLEU *DLEU *PHE VAL PRO GLY PRO]",3.30E-06,3.34E-06,3.77E-06
"CC[C@@H](C)[C@H]1NC(=O)[C@H](CC(C)C)N(C)C(=O)[C@H]2CCCN2C(=O)[C@H](CC(C)C)NC(=O)[C@H](Cc2ccccc2)N(C)C(=O)CN(C)C(=O)[C@@H](C(C)C)NC(=O)[C@H](C)NC(=O)[C@H]2CCCN2C(=O)[C@@H]2CCCN2C1=O (single isomer, unassigned) [Design D10.58.p2, *GLY *PHE LEU DPRO *LEU DILE PRO DPRO ALA DVAL]",3.23E-07,3.15E-07,2.44E-07
"CC[C@@H](C)[C@H]1NC(=O)[C@H](CC(C)C)N(C)C(=O)[C@H]2CCCN2C(=O)[C@H](CC(C)C)NC(=O)[C@@H](Cc2ccccc2)N(C)C(=O)[C@H](CC(C)C)N(C)C(=O)[C@@H](C(C)C)NC(=O)[C@H](C)NC(=O)[C@H]2CCCN2C(=O)[C@@H]2CCCN2C1=O (single isomer, unassigned) [Design D10.60.p2, *LEU *DPHE LEU DPRO *LEU DILE PRO DPRO ALA DVAL]",1.17E-06,1.49E-06,1.62E-06
"CC[C@@H](C)[C@H]1NC(=O)[C@@H](CC(C)C)N(C)C(=O)[C@@H]2CCCN2C(=O)[C@H]([C@@H](C)CC)NC(=O)[C@H]([C@@H](C)CC)N(C)C(=O)[C@@H](CC(C)C)NC(=O)[C@@H](C(C)C)N(C)C(=O)[C@H]2CCCN2C(=O)[C@@H](C(C)C)NC(=O)[C@@H]2CCCN2C(=O)[C@H]([C@@H](C)CC)NC1=O (single isomer, unassigned) [Design D11.23.p1, DVAL DPRO *DVAL DLEU *ILE ILE PRO *DLEU DILE ILE PRO]",2.70E-06,1.22E-06,5.23E-06
"CC[C@@H](C)[C@H]1NC(=O)[C@@H](CC(C)C)N(C)C(=O)[C@@H]2CCCN2C(=O)[C@H]([C@@H](C)CC)NC(=O)[C@H]([C@@H](C)CC)N(C)C(=O)[C@@H](CC(C)C)NC(=O)[C@@H](C(C)C)N(C)C(=O)[C@H]2CCCN2C(=O)[C@@H](C(C)C)NC(=O)[C@@H]2CCCN2C(=O)[C@H]([C@@H](C)CC)NC1=O (single isomer, unassigned) [Design D11.23.p2, DVAL DPRO *DVAL DLEU *ILE ILE PRO *DLEU DILE ILE PRO]",9.83E-07,1.49E-06,4.80E-07
"CC[C@H](C)[C@@H]1NC(=O)[C@@H](CC(C)C)NC(=O)[C@H](CC(C)C)NC(=O)[C@H]2CCCN2C(=O)[C@@H]2CCCN2C(=O)[C@H]([C@@H](C)CC)NC(=O)[C@@H](CC(C)C)N(C)C(=O)[C@@H](CC(C)C)N(C)C1=O [Design D8.9, ILE *DLEU *DLEU ILE PRO DPRO LEU DLEU] (cyclo(IP[dP]L[dL]I[dNMeL][dNMeL]))",BQL,BQL,BQL
"CC[C@@H](C)[C@H]1NC(=O)[C@H]2CCCN2C(=O)[C@@H]2CCCN2C(=O)[C@H](C(C)C)NC(=O)[C@@H](C(C)C)NC(=O)[C@@H]2CCCN2C(=O)[C@H]2CCCN2C(=O)[C@@H](C)NC1=O [Design D8.11, DALA DPRO PRO DVAL VAL PRO DPRO DILE] (cyclo([dV]VP[dP][dI][dA][dP]P))",BQL,BQL,BQL
"CC[C@H](C)[C@@H]1NC(=O)[C@@H]2CCCN2C(=O)[C@H]2CCCN2C(=O)[C@@H](CC(C)C)NC(=O)[C@@H](CC(C)C)N(C)C(=O)[C@@H]2CCCN2C(=O)[C@H](Cc2ccccc2)N(C)C(=O)[C@@H](Cc2ccc(O)cc2)NC1=O [Design D8.13, PRO ILE DTYR *PHE PRO *DLEU DLEU DPRO] (cyclo(I[dY][NMeF]P[dNMeL][dL][dP]P))",BQL,BQL,BQL
"CC[C@@H](C)[C@H]1NC(=O)[C@@H]2CCCN2C(=O)[C@H]2CCCN2C(=O)[C@@H](CC(C)C)NC(=O)[C@@H](C)N(C)C(=O)[C@H]2CCCN2C(=O)[C@H]2CCCN2C(=O)[C@H](C(C)C)NC1=O [Design D8.24, DPRO PRO DILE VAL DPRO DPRO *DALA DLEU] (cyclo([dI]V[dP][dP][dNMeA][dL][dP]P))",BQL,BQL,BQL
"CCCC[C@@H]1NC(=O)[C@@H]2CCCN2C(=O)[C@@H](C(C)C)NC(=O)[C@@H](C)N(C)C(=O)[C@@H](CC(C)C)NC(=O)[C@@H](CC(C)C)NC(=O)[C@@H]2CCCN2C(=O)[C@H]2CCCN2C1=O [Design D8.29, MET DPRO PRO DLEU DLEU *DALA DVAL PRO] (cyclo([dL][dL][dNMeA][dV]P[Nle][dP]P))",3.60E-07,3.98E-07,3.61E-07
"CC[C@H](C)[C@@H]1NC(=O)[C@@H](C)N(C)C(=O)[C@@H](C)N(C)C(=O)[C@H](C(C)C)NC(=O)[C@H]2CCCN2C(=O)[C@@H]2CCCN2C(=O)[C@H](C(C)C)NC(=O)[C@H]2CCCN2C(=O)[C@@H]2CCCN2C1=O [Design D9.12, PRO DPRO VAL PRO DPRO VAL *DALA *DALA ILE] (cyclo(IP[dP]VP[dP]V[dNMeA][dNMeA]))",BQL,BQL,BQL
"CC(C)C[C@@H]1NC(=O)[C@H]2CCCN2C(=O)[C@@H]2CCCN2C(=O)[C@H](C)N(C)C(=O)[C@@H](C(C)C)NC(=O)[C@H](Cc2ccccc2)NC(=O)[C@H]2CCCN2C(=O)[C@@H]2CCCN2C(=O)[C@@H](CC(C)C)NC1=O [Design D9.20, DLEU PRO DPRO PHE DVAL *ALA PRO DPRO LEU] (cyclo(F[dV][NMeA]P[dP]L[dL]P[dP]))",BQL,BQL,BQL
"CCCC[C@@H]1NC(=O)[C@H](C(C)C)NC(=O)[C@H]2CCCN2C(=O)[C@@H]2CCCN2C(=O)[C@H](C)NC(=O)[C@@H](C)N(C)C(=O)[C@@H](CC(C)C)N(C)C(=O)[C@@H](C(C)C)NC(=O)[C@@H]2CCCN2C1=O [Design D9.21, ALA PRO DPRO VAL MET PRO DVAL *DLEU *DALA] (cyclo(AP[dP]V[Nle]P[dV][dNMeL][dNMeA]))",2.94E-07,2.78E-07,3.05E-07
